From ChEMBL document CHEMBL4229543, “Squaramides as novel class I and IIB histone deacetylase inhibitors for topical treatment of cutaneous t-cell lymphoma” (Bioorg Med Chem Lett, 2018)
Converted amounts (≈) assume the structure as drawn.

What was measured:
[1] = tested on: HuT78; experiment: Pro-apoptotic activity in human HUT78 cells after 18 hrs by caspase-Glo 3/7 assay; type: functional, cell-based; details: HuT78, 18 h
[2] = Clearance in human hepatocytes assessed per million cells at 1 uM after 5 to 90 mins by LC-MS/MS analysis; type: ADME, cell-based, Hepatocyte; details: read-out: CLH
[3] = Solubility in pH 7.4 phosphate buffer solution at 100 uM after 24 hrs by HPLC method; type: physicochemical; details: for solubility at 24 h, 100 µM: phosphate buffer, pH 7.4
[4] = molecular target: Histone deacetylase 1 (Homo sapiens, UniProt Q13547); experiment: Inhibition of human recombinant HDAC1 using Fluor de Lys as substrate after 2 hrs by fluorescence method
Histone deacetylase 1, sequence (Q13547 whole entry): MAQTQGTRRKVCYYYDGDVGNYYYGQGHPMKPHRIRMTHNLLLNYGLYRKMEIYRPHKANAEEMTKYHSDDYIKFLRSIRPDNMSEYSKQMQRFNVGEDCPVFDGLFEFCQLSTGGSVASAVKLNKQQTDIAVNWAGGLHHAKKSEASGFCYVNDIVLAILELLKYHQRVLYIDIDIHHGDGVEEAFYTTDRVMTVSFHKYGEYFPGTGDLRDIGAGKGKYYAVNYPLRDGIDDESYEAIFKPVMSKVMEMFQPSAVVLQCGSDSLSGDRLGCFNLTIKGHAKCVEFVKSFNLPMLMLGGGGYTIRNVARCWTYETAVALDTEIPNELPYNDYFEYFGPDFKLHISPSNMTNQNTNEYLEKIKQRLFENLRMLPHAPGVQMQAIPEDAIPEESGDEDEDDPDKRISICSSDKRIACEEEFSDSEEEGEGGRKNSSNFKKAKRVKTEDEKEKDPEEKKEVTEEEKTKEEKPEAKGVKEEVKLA

[5] = Solubility in PG/EtOH (96%) at 30 mg/mL after 24 hrs by UV-spectrometric method; type: physicochemical; details: for solubility at 24 h: PG/EtOH (96%)

| EC50 [1] | hepatocyte CLint at 1 µM [2] | solubility at 24 h, 100 µM [3] | Ki [4] | solubility at 24 h [5] | solubility ([3]; buffer, pH 7.4, 24 h, 100 µM) | solubility ([5]; 24 h) | SMILES |
| --- | --- | --- | --- | --- | --- | --- | --- |
| 280 nM | < 5 µL/min/1e6 cells | 89 µM (≈ 29.5 µg/mL) | 4.4 nM | 12000 µM (≈ 3980 µg/mL) | – | – | Cc1ccccc1Nc1c(NCCCCCC(=O)NO)c(=O)c1=O |
| 290 nM | < 5 µL/min/1e6 cells | 87 µM (≈ 26.4 µg/mL) | 12 nM | 32000 µM (≈ 9710 µg/mL) | – | – | O=C(CCCCNc1c(Nc2ccccc2)c(=O)c1=O)NO |
| 170 nM | < 5 µL/min/1e6 cells | 75 µM (≈ 27 µg/mL) | 9.4 nM | 57000 µM (≈ 20500 µg/mL) | – | – | CC[C@H](Nc1c(NCCCCCC(=O)NO)c(=O)c1=O)c1ccccc1 |
| 220 nM | < 5 µL/min/1e6 cells | 73 µM (≈ 25.2 µg/mL) | 2.5 nM | 28000 µM (≈ 9670 µg/mL) | – | – | C[C@H](Nc1c(NCCCCCC(=O)NO)c(=O)c1=O)c1ccccc1 |
| 26 nM | < 5 µL/min/1e6 cells | 6 µM (≈ 1.99 µg/mL) | 0.56 nM | 1800 µM (≈ 596 µg/mL) | – | – | O=C(CCCCCCNc1c(Nc2ccccc2)c(=O)c1=O)NO |
| 560 nM | < 5 µL/min/1e6 cells | 92 µM (≈ 33.1 µg/mL) | 2.3 nM | 47000 µM (≈ 16900 µg/mL) | – | – | Cc1ccccc1[C@H](C)Nc1c(NCCCCCC(=O)NO)c(=O)c1=O |
| 270 nM | < 4.8 µL/min/1e6 cells | 75 µM (≈ 24.9 µg/mL) | 7.3 nM | 5700 µM (≈ 1890 µg/mL) | – | – | O=C(CCCCCNc1c(NCc2ccccc2)c(=O)c1=O)NO |
| 26 nM | 18 µL/min/1e6 cells | 79 µM (≈ 26.2 µg/mL) | 0.39 nM | 11000 µM (≈ 3650 µg/mL) | – | – | Cc1cccc(Nc2c(NCCCCCC(=O)NO)c(=O)c2=O)c1 |
| 1100 nM | < 5 µL/min/1e6 cells | 88 µM (≈ 31.6 µg/mL) | 11 nM | > 84000 µM | – | – | CC(C)(Nc1c(NCCCCCC(=O)NO)c(=O)c1=O)c1ccccc1 |
| 28 nM | < 4.8 µL/min/1e6 cells | 47 µM (≈ 14.9 µg/mL) | 0.29 nM | 2200 µM (≈ 698 µg/mL) | – | – | O=C(CCCCCNc1c(Nc2ccccc2)c(=O)c1=O)NO |
| 100 nM | < 5 µL/min/1e6 cells | 80 µM (≈ 27.6 µg/mL) | 4.8 nM | 39000 µM (≈ 13500 µg/mL) | – | – | C[C@@H](Nc1c(NCCCCCC(=O)NO)c(=O)c1=O)c1ccccc1 |

Further lines, the molecule ahead of its results:

| SMILES | EC50 [1] | hepatocyte CLint at 1 µM [2] | solubility at 24 h, 100 µM [3] | Ki [4] | solubility at 24 h [5] | solubility ([3]; buffer, pH 7.4, 24 h, 100 µM) | solubility ([5]; 24 h) |
| --- | --- | --- | --- | --- | --- | --- | --- |
| COc1ccc(Nc2c(NC3(CCCCC(=O)NO)CCC3)c(=O)c2=O)cc1 | 12 nM | 17 µL/min/1e6 cells | 82 µM (≈ 31.8 µg/mL) | 0.063 nM | – | – | – |
| Cc1ccc(Nc2c(NCCCCCC(=O)NO)c(=O)c2=O)cc1 | 1.7 nM | 7.2 µL/min/1e6 cells | 8.1 µM (≈ 2.68 µg/mL) | 0.057 nM | 1800 µM (≈ 596 µg/mL) | – | – |
| C[C@H](CCCCC(=O)NO)Nc1c(Nc2ccc(N(C)C)cc2)c(=O)c1=O | 13 nM | < 5 µL/min/1e6 cells | 80 µM (≈ 30 µg/mL) | 2.7 nM | 27000 µM (≈ 10100 µg/mL) | – | – |
| Cc1ccc([C@H](C)Nc2c(NCCCCCC(=O)NO)c(=O)c2=O)cc1 | 130 nM | < 5 µL/min/1e6 cells | 76 µM (≈ 27.3 µg/mL) | 2.3 nM | 5600 µM (≈ 2010 µg/mL) | – | – |
| O=C(CCCCCNc1c(Nc2ccc(C(F)(F)F)cc2)c(=O)c1=O)NO | 4 nM | 11 µL/min/1e6 cells | 4.5 µM (≈ 1.73 µg/mL) | 0.23 nM | 4700 µM (≈ 1810 µg/mL) | – | – |
| C[C@H](CCCCC(=O)NO)Nc1c(Nc2ccc(OC(F)(F)F)cc2)c(=O)c1=O | 10 nM | 31 µL/min/1e6 cells | 27 µM (≈ 11.2 µg/mL) | 0.58 nM | 70000 µM (≈ 29100 µg/mL) | – | – |
| CN(C)c1ccc(Nc2c(NCCCCCC(=O)NO)c(=O)c2=O)cc1 | 6.2 nM | < 5 µL/min/1e6 cells | 12 µM (≈ 4.32 µg/mL) | 0.91 nM | 1400 µM (≈ 505 µg/mL) | – | – |
| O=C(CCCCCNc1c(NC2CCCCC2)c(=O)c1=O)NO | 84 nM | < 5 µL/min/1e6 cells | 91 µM (≈ 29.4 µg/mL) | 1.4 nM | 8700 µM (≈ 2810 µg/mL) | – | – |
| COc1cc(Nc2c(NCCCCCC(=O)NO)c(=O)c2=O)ccc1N(C)C | 290 nM | < 5 µL/min/1e6 cells | 93 µM (≈ 36.3 µg/mL) | 0.5 nM | 2600 µM (≈ 1020 µg/mL) | – | – |
| C[C@@H](CCCCC(=O)NO)Nc1c(Nc2ccc(N(C)C)cc2)c(=O)c1=O | 44 nM | 3.6 µL/min/1e6 cells | 89 µM (≈ 33.3 µg/mL) | 4.3 nM | 28000 µM (≈ 10500 µg/mL) | – | – |
| Cc1cccc([C@@H](C)Nc2c(NCCCCCC(=O)NO)c(=O)c2=O)c1 | 160 nM | < 5 µL/min/1e6 cells | 89 µM (≈ 32 µg/mL) | 11 nM | 82000 µM (≈ 29500 µg/mL) | – | – |
| C[C@H](CCCCC(=O)NO)Nc1c(Nc2ccc3cc(C(F)(F)F)[nH]c3c2)c(=O)c1=O | 7.2 nM | 10 µL/min/1e6 cells | 10 µM (≈ 4.38 µg/mL) | 0.15 nM | 21000 µM (≈ 9210 µg/mL) | – | – |
| Cc1cc2ccc(Nc3c(NCCCCCC(=O)NO)c(=O)c3=O)cc2[nH]1 | 28 nM | < 5 µL/min/1e6 cells | 4.4 µM (≈ 1.63 µg/mL) | 0.27 nM | 9100 µM (≈ 3370 µg/mL) | – | – |
| COc1ccc(Nc2c(NC(C)(C)CCCCC(=O)NO)c(=O)c2=O)cc1 | 5.5 nM | 9.2 µL/min/1e6 cells | 99 µM (≈ 37.2 µg/mL) | 0.056 nM | – | – | – |
| O=C(CCCCC(Cc1ccccc1)Nc1c(Nc2ccc(C(F)(F)F)cc2)c(=O)c1=O)NO (racemic) | 38 nM | 6.6 µL/min/1e6 cells | – | 1.9 nM | 5700 µM (≈ 2710 µg/mL) | < 1 µM | – |
| CC(CCCCC(=O)NO)Nc1c(Nc2ccc(C(F)(F)F)cc2)c(=O)c1=O (racemic) | 18 nM | 21 µL/min/1e6 cells | 30 µM (≈ 12 µg/mL) | 0.28 nM | 20000 µM (≈ 7990 µg/mL) | – | – |
| CC(C)C(CCCCC(=O)NO)Nc1c(Nc2ccc(C(F)(F)F)cc2)c(=O)c1=O (racemic) | 280 nM | 27 µL/min/1e6 cells | 5.3 µM (≈ 2.27 µg/mL) | 12 nM | 6300 µM (≈ 2690 µg/mL) | – | – |
| CC(CCCCC(=O)NO)Nc1c(Nc2ccccc2)c(=O)c1=O (racemic) | 32 nM | < 5 µL/min/1e6 cells | 93 µM (≈ 30.8 µg/mL) | 0.69 nM | 46000 µM (≈ 15200 µg/mL) | – | – |
| CCC(CCCCC(=O)NO)Nc1c(Nc2ccc(C(F)(F)F)cc2)c(=O)c1=O (racemic) | 21 nM | 25 µL/min/1e6 cells | 6.6 µM (≈ 2.73 µg/mL) | 0.51 nM | 25000 µM (≈ 10300 µg/mL) | – | – |
| COc1ccc(Nc2c(NC(C)CCCCC(=O)NO)c(=O)c2=O)cc1 (racemic) | 12 nM | 7.1 µL/min/1e6 cells | 85 µM (≈ 30.7 µg/mL) | 0.27 nM | 11000 µM (≈ 3980 µg/mL) | – | – |
| Cc1ccc(Nc2c(NC(C)CCCCC(=O)NO)c(=O)c2=O)cc1 (racemic) | 5.6 nM | < 6.5 µL/min/1e6 cells | 83 µM (≈ 28.7 µg/mL) | 0.097 nM | 4900 µM (≈ 1690 µg/mL) | – | – |
| O=C(CCCCCCC(=O)Nc1ccccc1)NO [VORINOSTAT] | – | < 5 µL/min/1e6 cells | 87 µM (≈ 23 µg/mL) | – | – | – | 32000 µM (≈ 8460 µg/mL) |
